Results published in US11000542B2, “Treatment and prevention of the common cold using povidone-iodine” (FIREBRICK PHARMA LIMITED, priority 2014, dated 2021).

Assays:
[1] = tested on: colds due to picornaviruses; settings: cited from earlier work
[2] = Intranasal tolerability of aqueous PVP-I preparations (inventors' finding); format: in vivo, human; settings: repeated, frequent use
Description: With respect to the intranasal tolerability of PVP-I, as distinct from ciliotoxicity, the present inventors have discovered that when the concentration of PVP-I in aqueous preparations is greater than 1.0%, the preparation may be irritating to the nasal mucosa in some individuals and not suitable for repeated, frequent and general use, as would be required in the effective treatment or prevention of the common cold. On this consideration, a preferred composition for nasal use is a concentration of PVP-I at or below 1.0%.

human rhinovirus (HRV) = settings: cited from earlier work
human influenza virus = settings: very low concentrations; Reimer et al (2002); cited from earlier work
adenovirus = settings: Reimer et al (2002), Wutzler et al (2002); cited from earlier work
[3] = tested on: herpes simplex virus (HSV); settings: Wutzler et al (2002); cited from earlier work
nasal cilia = settings: Kramer et al (2002), cited from earlier work
granulocytes = settings: Van den Broek et al (1982); cited from earlier work
monocytes = settings: Van den Broek et al (1982); cited from earlier work
common cold = settings: throat gargle; cited from earlier work
[4] = typical; cited from earlier work

Molecule	cytochrome P450 induction ([1]; FDA Advisory Committee review of 2002 NDA)	reduction in cold duration ([1]; Phase III data)	Time to Alleviation of Illness (TAI), cold duration ([1]; phase three study, Hayden et al (2003)) [days]	PVP-I concentration in aqueous preparations that may be irritating to the nasal mucosa in some individuals [2]	log reduction in HRV (human rhinovirus (HRV); 30 second exposure, Wutzler et al (2002)) [log]	reduction in viable virus count (human rhinovirus (HRV); 30 seconds exposure, any concentration, Reimer et al (2002)) [log]	exposure required for a 4 log reduction (microbicidal effect) (human rhinovirus (HRV); in vitro, Reimer et al (2002), Wutzler et al (2002)) [minutes]	microbicidal effect against HRV (human rhinovirus (HRV); maximum exposure period tested 10 minutes, Kawana et al (1997))	exposure for a 4 log10 reduction in viable virus count (human influenza virus) [second]	exposure required for a 4 log reduction (microbicidal effect) (adenovirus) [minutes]	exposure for a microbicidal effect (4 log reduction) [3] [seconds]	PVP-I concentration toxic to the nasal cilia (ciliotoxic) (nasal cilia; Reimer et al (2002): complete loss of ciliary function) [%]	PVP-I concentration not ciliotoxic / suitable for use in the nose (nasal cilia; Reimer et al (2002)) [%]	PVP-I concentration at which virtually all granulocytes destroyed (granulocytes)	PVP-I concentration significantly reducing the viability of granulocytes (granulocytes)	PVP-I concentration substantially degrading monocytes (monocytes)	effect of gargling on cold symptoms and incidence (common cold)	free iodine in PVP-I solutions [4]
Cc1cc(CCCOc2c(C)cc(-c3noc(C(F)(F)F)n3)cc2C)on1 [pleconaril]	a risk of cytochrome P450 induction	one	6.3	–	–	–	–	–	–	–	–	–	–	–	–	–	–	–
povidone-iodine [PVP-I]	–	–	–	greater than 1.0%	1.1	~1	30	failed to produce a microbicidal effect against HRV	≤ 30	5	30	≥ 2.5	≤ 1.25	above 0.1%	above 0.05%	above 0.1%	no significant effect on nasal cold symptoms or bronchial complications, and no benefit in terms of reducing the incidence of the common cold	less than 30 ppm
